The values that follow come from patent US20120065179A1, “PRODRUG COMPRISING BETA-KETO CARBOXYLIC ACID, BETA-KETO CARBOXYLIC ACID SALT OR BETA-KETO CARBOXYLIC ACID ESTER FOR DRUG DELIVERY” (YKI, Ytemiska Institutet AB, priority 2009, published 2012).

Several values for one entry are separate records, joined by “and”; a condition that tells them apart may be missing. Identical values can stand only once. Like-named read-outs stand apart in the source and are kept apart here.

Data set [1] can be described thus: Aqueous solubility of sodium beta-keto salt prodrug of Nabumetone (Example 13b). It is filed as physicochemical. As for the experimental part:
12.1 mg of the of ethyl-5-(6-methoxy-2-naphthyl)-beta-keto-pentanoate product prepared and purified as in Example 8 was mixed with 25 mL of a 0.5 M aqueous solution NaOH and homogenised on a vortex mixer. […] 15 minutes after preparation of the sample, the sample was transferred to an oil bath set at 37° C. with continuous gentle magnetic stirring, and kept there for 3.5 hours. Crystalline flakes remained in the sample at the end of the 3.5 hours heat-treatment, and the sample was thereafter centrifuged and the clear liquid above the sedimented crystals was analysed by HPLC as described above.
After storage around one hour at room temperature a fraction of the sample was then filtered twice through a 0.2 μm filter (Whatman, 0.2 μm PS) fitted to a syringe to give a clear solution. 200 μL of this filtered solution was transferred, in a tightly closed vessel, to an oil bath at 95° C. and kept at this temperature for about 5 hours to bring about quantitative decarboxylation of the labile, dissolved beta-keto carboxylic salt prodrug derivative of Nabumetone.
The heated sample was then mixed with 35 mL of mobile phase (see Example 1) whereby a few solid crystals (comprising Nabumetone) was seen to not dissolve. In order to assure a correct sampling for HPLC analysis, 5 mL of the 35 mL sample was filtered through a 0.2 μm filter, after the whole 35 mL sample had been pH adjusted to 4.21 by 300 μL 0.1 M HCl+100 μL 1 M HCl, to assure that the pH of the sample was close to the pH of the mobile phase itself (pH 4.30). The filtered solution was thereafter analysed by HPLC and found to contain 0.777 mg Nabumetone per liter. If recalculated to the corresponding concentration of nabumetone equivalents in the form of the beta-keto salt prodrug present in dissolved form in the filtered 200 μl sample that was subsequently heat-treated to form Nabumetone above, the obtained concentration corresponds to a Nabumetone concentration of 136.7 mg Nabumetone per liter in the clear aqueous solution, at room temperature, before the heat-treatment at 95° C.

The nature of data set [2]: Sustained release of Nabumetone from beta-keto sodium salt prodrug in phosphate buffer at blood pH and 37° C. It is filed as physicochemical. As to conditions: phosphate buffer pH about 7.4, 37° C. As for the experimental part: 20.91 mg of the product synthesised as described in Example 8 (however in this case not purified by the chromatographic step in Example 8) was mixed with 1 ml 0.5 M NaOH at room temperature, whereby a portion of the sample was dissolved. After 30 minutes the mixture was placed in an oven at 37° C., and 10 μl samples was taken at regular intervals, diluted with 1 ml mobile phase (as in Example 1), and analyzed by HPLC, using UV-detection at 240 nm. 3.0 hours after initiation of the saponification reaction, the precursor (retention time 4.6 min) could no longer be detected, and the precursor peak was replaced by a peak from the intermediary beta-keto salt prodrug (retention time 2.3 minutes). At this point in time, a solution of 9 ml H2O and 0.0762 g NaH2PO4 was added to the sample, in order to create a NaH2PO4/Na2HPO4 pH buffer by neutralization of the NaOH remaining in the sample. […] The sample was again placed in the oven at 37° C. and the decarboxylation of the beta-keto salt in solution, gradually giving the commercially available drug Nabumetone, was followed by HPLC by taking 100 μl samples at regular intervals and diluting them with 1 ml mobile phase (see Example 1 above) before injection on the HPLC. It can be seen from the data that Nabumetone was continuously released into the solution via the spontaneous, non-enzymatic decarboxylation of the dissolved prodrug sodium salt, over a period of more than 120 hours. The half-life of the prodrug was estimated to be about 70 hours in this medium and under the conditions used.

Data set [3] can be described thus: In-vitro hydrolysis of Nabumetone beta-keto ester pro-prodrug and release of Nabumetone in model blood electrolyte solution at 37° C. It is filed as physicochemical. Conditions: model blood solutes solution.
The conditions of data set [4]: cited from earlier work.
For data set [5] the following is noted: pig, 2 mM, pH 6.63.
Data set [6] can be described thus: Sustained release of acetophenone in vitro in model blood electrolyte solution at 37° C. The class given is physicochemical. As to conditions: formed from sodium benzoyl acetate, model blood electrolyte solution pH 7.4. As for the experimental part:
A 0.2 M solution of ethyl benzoyl acetate (90%, Sigma Aldrich) in 0.5 M NaOH (aq) was prepared at room temperature and stirred for typically 5-24 hours, still at room temperature. After this time a major part of the ethyl benzoyl acetate had been transformed into dissolved sodium benzoyl acetate, as evidenced by monitoring the reaction by analysis of samples by reversed phase HPLC. Some acetophenone and remaining ethyl benzoyl acetate were typically present in the samples, but in minor amounts. The method employed a C8 column with an inner diameter of 150×4.6 mm and 5 micron particles. The mobile phase consisted of 400 ml deionized water+600 ml acetonitrile+0.196 g H3PO4 (85%)+2.760 g NaH2PO4*H2O. The flow rate was set to 1.0 mL/min and UV detection at 254 nm was employed for analysis of the compounds ethylbenzoylacetate (precursor), benzoylacetate (model prodrug) and acetophenone (model drug).
Ethyl benzoyl acetate was saponified according to the description in Example 1, and after 7 hours a solution containing about 0.2 M of the sodium salt of benzoyl acetate was obtained.

[7] abbreviates: clear liquid after 3.5 h at 37° C. in 0.5 M NaOH, 200 μL diluted with 5.0 ml mobile phase.

“5-(6-methoxy-2-naphthyl)-beta-keto-pentanoate [Nabumetone beta-keto salt prodrug]”: the “Solubility (mg/L, as Nabumetone equivalents)” value in data set [1] (clear aqueous solution (0.5 M NaOH) at room temperature, 0.2 μm filtered, before heat-treatment) came to 136.7 mg/L. For the same molecule, in data set [1] (setting [7]), the “Area at retention time 2.3 minutes characteristic for detection of the beta-keto anion” value is 36218 arbitrary units. Also, in data set [2], the “half-life of the prodrug (estimated)” value is recorded as “about 70 hours”. The “period over which Nabumetone was continuously released into the solution” value in data set [2] is listed as “more than 120 hours”. In addition, the “Nabumetone beta-keto salt prodrug (HPLC area @ retention time 2.3 min)” value was 28341 in data set [2] (3.25 h after initiation of saponification); 27144 in data set [2] (5.1 h after initiation of saponification); 22542 in data set [2] (21.45 h after initiation of saponification); 24102 and 21914 in data set [2] (24.25 h after initiation of saponification); 19536 in data set [2] (28.15 h after initiation of saponification); 18202 in data set [2] (45.4 h after initiation of saponification). Besides, the “Nabumetone beta-keto salt prodrug (HPLC area @ retention time 2.3 min)” value came out at 18123 in data set [2] (50 h after initiation of saponification), 9528 in data set [2] (78 h after initiation of saponification), 9760 in data set [2] (117 h after initiation of saponification) and 1827 in data set [2] (194 h after initiation of saponification).
As to `CCOC(=O)CC(=O)CCc1ccc2cc(OC)ccc2c1` [Pro-prodrug/beta-keto ester, ethyl-5-(6-methoxy-2-naphthyl)-beta-keto-pentanoate], the “Area at retention time […] characteristic for detection of the beta-keto ester pro-prodrug” value in data set [1] (setting [7]) is reported as 632 arbitrary units. Also, the “Pro-prodrug/beta-keto ester (HPLC peak area)” value (from here on “Pro-prodrug/beta-keto ester”) in data set [3] (Time 0.00 hours) worked out at 1440 arbitrary units; in data set [3] (Time 0.67 hours), 1368 arbitrary units; in data set [3] (Time 1.67 hours) it was 1395 arbitrary units; in data set [3] (Time 2.67 hours), 1145 arbitrary units; in data set [3] (Time 4.58 hours), 1130 arbitrary units; in data set [3] (Time 22.6 hours), 780 arbitrary units. The “Pro-prodrug/beta-keto ester” value was 672 arbitrary units in data set [3] (Time 28.8 hours); 618 arbitrary units in data set [3] (Time 48.8 hours); 0 arbitrary units in data set [3] (Time 53.6 hours); 227 arbitrary units and 245 arbitrary units in data set [3] (Time 70.3 hours); 0 arbitrary units in data set [3] (Time 121.25 hours); 0 arbitrary units in data set [3] (Time 145.0 hours). Also, the “Pro-prodrug/beta-keto ester” value in data set [3] (Time 172.6 hours), in data set [3] (Time 197.3 hours), in data set [3] (Time 218.4 hours), in data set [3] (Time 293.7 hours) and in data set [3] (Time 335 hours) was 0 arbitrary units throughout.
What is called Solubility is the concentration that dissolves in the medium under given conditions. For the molecule `CC(=O)c1ccccc1` [acetophenone], the Solubility in data set [4] (tabulated solubility) was 46 mM. In addition, the Acetophenone concentration in data set [5] (0.25 h) is listed as 0.09 mM; in data set [5] (1.33 h), 0.32 mM; in data set [5] (2.58 h) it was 0.50 mM; in data set [5] (4.75 h) it was 0.866 mM; in data set [5] (5.58 h), 0.866 mM; in data set [5] (6.58 h), 0.921 mM. In addition, the values for the Acetophenone concentration in data set [5] (22.58 h) and in data set [5] (-0.17 h) were 1.34 mM and 0.07 mM, respectively. Also, the “Concentration of acetophenone (model drug) in sample” value (from here on “Concentration of acetophenone”) worked out at 160 µM in data set [6] (Time @ 37° C. 0.42); 290 µM in data set [6] (Time @ 37° C. 2.25); 380 µM in data set [6] (Time @ 37° C. 3.17); 480 µM in data set [6] (Time @ 37° C. 4.17); 400 µM in data set [6] (Time @ 37° C. 6.17); 630 µM in data set [6] (Time @ 37° C. 8.25). Also, the “Concentration of acetophenone” value in data set [6] (Time @ 37° C. 10.17) came to 730 µM; in data set [6] (Time @ 37° C. 12.17), 730 µM; in data set [6] (Time @ 37° C. 13.92), 900 µM; in data set [6] (Time @ 37° C. 17.92), 920 µM; in data set [6] (Time @ 37° C. 21.17), 1080 µM; in data set [6] (Time @ 37° C. 24.92), 950 µM. Further, the “Concentration of acetophenone” value in data set [6] (Time @ 37° C. 31.33) worked out at 1110 µM; in data set [6] (Time @ 37° C. 48.75) it was 1550 µM; in data set [6] (Time @ 37° C. 76.33), 1890 µM.
Regarding `C[C@]12CC[C@H]3[C@@H](CCC4=CC(=O)CC[C@@]43C)[C@@H]1CC[C@@H]2O` [testosterone, (8R,9S,10R,13S,14S,17S)-17-hydroxy-10,13-dimethyl-1,2,6,7,8,9,11,12,14,15,16,17-dodecahydrocyclopenta[a]phenanthren-3-one], in data set [4] (at 37° C., Okimotoa et al., 1999), the Solubility was 39 µg/mL.
